# From ChEMBL document CHEMBL3507680, “University of Dundee, Gates Library screen for HepG2 cell viability”
# Assay: Human HepG2 cell viability assay in 384 well format
# Type: toxicity, cell-based
# Design: dose 125 nL, time 70.5 hour; concentration not given beside the values
# Settings: HepG2 cells, read-out: Inhibition
row,SMILES,cytotoxicity at 70.5 h [%]
1,CSCC(CCO)Nc1cccc(C(F)(F)F)n1 (stereo not drawn),-1.51
2,Cc1ccc(-n2ccnc2)c(C(=O)NCCOCC(F)(F)F)c1,-8.14
3,CCN(Cc1nccn1C)C(=O)c1ccc(NCC(C)C)nc1,-6.64
4,Cn1cc(CCNC(=O)N2CCCC(c3nncn3C)C2)cn1 (stereo not drawn),-4.93
5,CN1C[C@H](NC(=O)c2cscn2)[C@@H]2OCCC[C@@H]21,-6.86
6,COc1ccnc(N2CCN(C(=O)c3csnn3)CC2)n1,-3.32
7,O=C(CN1C[C@H]2CC[C@@H]1CN(Cc1ccccn1)C2)NCc1cccs1,-7.94
8,Cc1ccc(-n2cccn2)cc1S(=O)(=O)N1C[C@@H]2CC[C@H](C1)N(C)C2,-1.91
9,CO[C@H]1COCCN(C(=O)c2ccno2)C1,-1.71
10,CCN1CCCC(C)(C(=O)NCCc2nnc(C)[nH]2)C1 (stereo not drawn),-3.07
11,COCC1CN(C(=O)N2CCCC2)Cc2cnn(CC3CCCC3)c21 (stereo not drawn),-1.96
12,CCS(=O)(=O)N1CC[C@H](OC)[C@H]2CN(Cc3ccncc3)C[C@H]21,-3.99
13,O=C(NC[C@]12COC[C@H]1CN(Cc1cccs1)C2)c1ccsc1,-9.66
14,O=C(CN1CCCCC1Cn1cncn1)NC1CCN(C2CC2)CC1 (stereo not drawn),-1.8
15,Cc1ncsc1CNC(=O)NCC1(c2ccc3c(c2)OCO3)CC1,19
16,CC(C)N1CCC(CNC(=O)CCc2cc(F)ccc2F)C1 (stereo not drawn),14.8
17,CC(NC(=O)NCCCNS(C)(=O)=O)c1ccncc1 (stereo not drawn),1.41
18,CNC(=O)c1cccc(NC(=O)CN2CCN(S(C)(=O)=O)CC2)c1,-11.3
19,Cc1ccc(S(=O)(=O)Nc2ccc(-n3cccc3C(=O)O)c(C)c2)cc1,-6.38
20,Cc1ccc2c(ccn2CCC(=O)O)c1,-4.94
21,O=C(C1CCCC1)N1CC[C@]2(O)CCN(Cc3ncccn3)C[C@@H]2C1,-3.12
22,CC(=O)c1cccc(NC(=O)COc2c(C)n(C)ccc2=O)c1,-7.44
23,CC(=O)c1cc(C(=O)NC2(c3ccccc3)CCC2)n(C)c1,-6.28

row,SMILES,cytotoxicity at 70.5 h [%]
1,CCOC(=O)c1sc2ccsc2c1CNC(=O)C(C)OC (stereo not drawn),3.36
2,COc1cc(NC2CCS(=O)(=O)CC2)ncn1,-16.4
3,O=C(CN1CCCC1Cn1cncn1)NCCOc1ccc(F)cc1 (stereo not drawn),-0.118
4,COc1c(CNC2CCCOc3ccc(F)cc32)c(C(C)C)nn1C (stereo not drawn),-4.87
5,O=C(c1cccnc1)N1C[C@@H]2CC[C@H](C1)N(Cc1cccc(Cl)c1F)C2,-1.34
6,COc1c(C2CCCN2C(=O)c2sc(C)nc2C)c(C)nn1C (stereo not drawn),10.6
7,Cc1cc(OCc2cccc(F)c2)ccc1NC(=O)C(C)NC(N)=O (stereo not drawn),5.5
8,CSC(C)(C)CNC(=O)NCC[S+]([O-])c1ccccc1F (stereo not drawn),-9.35
9,COc1ccc(S(=O)(=O)NCC(N)c2ccccc2)c(C)c1 (stereo not drawn),-5.68
10,COCC1CN(Cc2ccncc2)Cc2nn(CC3CC3)cc21 (stereo not drawn),-12.8
11,CN(Cc1ccncc1)CC1CCCN(CCc2ccc(Cl)cc2)C1 (stereo not drawn),-0.313
12,CSC(C)(C)CNC(=O)NCc1cccc(-n2cncn2)c1,-0.656
13,COCCn1cc(C(=O)N2CCCC2c2cccc(C)c2)ccc1=O (stereo not drawn),-4.94
14,CN(Cc1nnc2n1CCC2)C(=O)c1ccc2c(c1)OCCO2,44.2
15,NCc1cccc(-c2cccnc2C(=O)NCCCN2CCOCC2)c1,-3.76
16,CC[C@H]1CN(C(=O)C2CC2)CC[C@H]1CC(=O)NCCN1CCOCC1,-0.373
17,CN1CCN(C2CCN(CC(O)c3ccccc3F)CC2)C1=O (stereo not drawn),16.4
18,CC(=O)N(C)c1nc(CN2CCCCC2Cn2cncn2)cs1 (stereo not drawn),-6.38
19,CCCc1nc(CN2CCOC(CNc3cccnn3)C2)cs1 (stereo not drawn),-11.7
20,CSc1cccc(CN2CCn3nc(CNC(C)=O)cc3C2)c1,5.2
21,Cc1cnn(CCC(=O)N(CC2CN(C)CCO2)c2nccs2)c1 (stereo not drawn),-12.8
22,CC(=O)N1CC[C@H]2C(=O)N(c3ccsc3)CCO[C@H]2C1,-2.46
23,Cc1cccn2c(CC(=O)N3CCC(CCn4cccn4)CC3)cnc12,13.1

row,SMILES,cytotoxicity at 70.5 h [%]
1,Cc1ccc(CCc2nc(C3CCOC3)no2)o1 (stereo not drawn),6.82
2,CC(=O)N1CCN(CC(N)=O)CC(COc2ccccc2)C1 (stereo not drawn),6.55
3,Cc1cc(N(C)C)nc(C2(C)CCNCC2)n1,46.3
4,O[C@@]1(CNCCOc2ccccc2)CCCN2CCCC[C@@H]21,28
5,CNS(=O)(=O)CC(=O)N(Cc1c(F)cccc1F)C1CCCC1,1.88
6,CC1=CC(C)(C)N(CN2C(=O)c3ccccc3C2=O)c2ccccc21,0.789
7,CCCNc1ncc(-c2cc(C3CC3)nc(N)c2C#N)cn1,-12.1
8,CN(CCCNC(=O)c1cccc(OCC(N)=O)c1)CC(F)(F)F,0.403
9,CC(C)[C@H]1CN(c2ccncc2)C[C@@H]1NC(=O)C1(C#N)CCOCC1,-8.3
10,CC(c1ccccc1)N(C)C(=O)CN1CCCc2cc(F)cc(F)c21 (stereo not drawn),12.8
11,CCC1=N[C@@]2(CC[C@@H]3CN(S(=O)(=O)CC(C)C)C[C@@H]32)C(=O)N1CC1CC1,0.026
12,Cc1csc(C2CCCCN2C(=O)Cn2cncn2)n1 (stereo not drawn),20.9
13,O=C(c1cscn1)N1CCC2(CN(Cc3nccs3)C2)C1,-11.9
14,CCN1CCC2(CCC1=O)CN(c1cnc3ccccc3n1)CCN2C (stereo not drawn),-2.99
15,NS(=O)(=O)CCNC(=O)c1ccc(OCc2ccccc2)nc1,20.5
16,CCc1nc(N2CCN(c3ncccc3C#N)CC2)c2cnn(C)c2n1,22
17,CCN(CC1CCOCC1)C(=O)CCNC(=O)c1ccccc1F,-23.5
18,CC(=O)N(C)c1nc(CN2CCCC2c2cnn(C)c2)cs1 (stereo not drawn),1
19,CCN(CC)C(CNC(=O)c1ccnc(N(C)C)c1)c1ccsc1 (stereo not drawn),-5.28
20,CC(C)CN1CCC(NC(=O)NCCC(=O)NCc2ccccc2)CC1,-2.46
21,CSCCCN1CC[C@@]2(O)CCN(c3ncccn3)C[C@H]2C1,-2.32
22,Cc1ccc(CN(C)C(C(=O)O)c2ccc3c(c2)OCO3)o1 (stereo not drawn),-7.76
23,CN1CCN(CCCN(C)S(=O)(=O)C2CCCCC2)CC1,-1.58

row,SMILES,cytotoxicity at 70.5 h [%]
1,COCC1CN(C(=O)c2ccco2)Cc2nccn2C1 (stereo not drawn),-9.63
2,Cc1nc(O)cc(CCNC(=O)c2ccc(CN3CCCCC3)cc2)n1,0.488
3,CNC(=O)c1ccc(OC)c(NCc2ncc(-c3cccs3)o2)c1,-92.5
4,Cc1ccc(C(=O)NCCn2nc(-n3cncn3)ccc2=O)c(C)c1,29.8
5,COCc1ncn2c1CN(S(=O)(=O)c1cccc(OC)c1)CC2,8.77
6,CC(=O)Nc1nc(-c2ccc(C)c(C)c2)c[nH]1,0.35
7,Cc1cc(C)n(CC(=O)NCc2ccccn2)n1,-10.7
8,CCOCCN1CCN(CCOCC(F)(F)F)CC1,-8.54
9,COc1ccc2c(c1)C(=O)CC1(CCN(Cc3ccc(F)cc3)CC1)O2,21.7
10,c1ccc(OC2COC3(CCN(CC4CC4)CC3)C2)nc1 (stereo not drawn),2.65
11,COc1cc(CN2CCCC[C@]3(C)NC(=O)CC[C@H]23)ccc1F,-6.42
12,Cc1ccc(N2CCC3(CCC(=O)N3)CC2)nn1,-10
13,O=C(Nc1ccc2c(c1)OCO2)N1CCN(CCc2ccccc2)CC1,-6.84
14,N#CCCCOc1cccnc1NC(=O)Cc1ccccc1F,0.586
15,Cc1ccc(N2CCC3(CCN(C(N)=O)CC3)CC2)nn1,-27.1
16,O=C1CCCN1CCCC(=O)N1CCCC(Cc2cccnc2)C1 (stereo not drawn),-4.43
17,O=C(Nc1cnn(Cc2ccc(F)cc2Cl)c1)C1CC1,-3.99
18,Cc1ccc(CNC(=O)CN2CCCCC2Cn2cncn2)s1 (stereo not drawn),-7.67
19,CC(C)CNC(=O)c1nc(COc2ccc3c(c2)OCO3)no1,-7.9
20,CCS(=O)(=O)N1CC[C@H]2O[C@H](c3nc(C)no3)CC[C@H]21,-14.9
21,Cc1ccc(NC2CCN(C(=O)COC3CCCCC3)CC2)nn1,20.5
22,Cc1noc(C)c1CCCNC(=O)Nc1ccc2c(c1)COC2,7.04
23,Cc1n[nH]c(C2CN(C(=O)c3ccc(=O)n(C)c3)CCO2)n1 (stereo not drawn),25.4

row,SMILES,cytotoxicity at 70.5 h [%]
1,O=C([C@H]1CCCN1)N1CC2(CCNCC2)c2cc(Cl)ccc21,30
2,CCNc1cc2c(nn1)CCN(C(=O)c1ccnc(N(C)C)c1)C2,0.651
3,CC(C)COC(=O)N1CC(=O)N(CCCc2ccccc2)CC(O)C1 (stereo not drawn),-4.38
4,O=C1c2cnc(N3CCCCC3)nc2CN1c1ccc2c(c1)OCO2,16.4
5,CCOCc1ncn2c1CN(S(=O)(=O)c1ccc(F)cc1)CC2,9.27
6,CC(C1CCN(Cc2ccccc2OC(F)F)CC1)N1CCOCC1 (stereo not drawn),-8.64
7,Cc1ccc(C(=O)NC2CCN(Cc3noc(CC(C)C)n3)CC2)s1,7.31
8,CC(C)OC(=O)N1CCC(c2nnc(Cn3ccnc3)n2C)CC1,20.7
9,O=C(NCc1nc[nH]n1)c1cc(COc2cccc(F)c2)[nH]n1,11.1
10,O=C(NCc1ccccc1F)N1CCC(C2OCCO2)CC1,-7.09
11,Cc1noc([C@@]23CCO[C@@H]2CCN(S(=O)(=O)c2cccnc2)C3)n1,-6.17
12,Cc1cc2c(N3CCC(N(C)Cc4cnn(C)c4)CC3)ncnc2s1,-3.32
13,Cc1nc(-c2ccoc2)n(CC(=O)N(C)CC(C)C)c1C,-4.77
14,Cc1nn(C)c(N(C)C)c1CNCc1cccc(Cn2cncn2)c1,-3.12
15,C=Cn1cc(CN2CCC(c3ncc(Cl)cc3S(C)(=O)=O)CC2)c(C)n1,-3.31
16,CCN(CC)c1ccc2ccc(C(=O)N3CCCCO3)cn12,3.7
17,O=C(c1cccc(F)c1)N1CCOC(c2nc(-c3ncccn3)no2)C1 (stereo not drawn),-5.4
18,Cc1ncsc1C(=O)NC1CCN(Cc2ccc(C#N)cc2)CC1,-14.1
19,CC(C)C(=O)NC1CCN(CCO)CC1,4.41
20,Cc1nn(C)c(C)c1CN(C(=O)c1cc(Cl)c[nH]c1=O)C(C)C,-11
21,CSc1nccc(NCC2CNCCOC2)n1 (stereo not drawn),-11.3
